Measured values published in publication PMC6979384, “Characterization of the plant homeodomain (PHD) reader family for their histone tail interactions” (Epigenetics & Chromatin, 2020).
Where no end group is shown, it is not given here. [ ]: non-standard residue; d: D form. Arg(Me2a) = CN(C)C(=N)NCCC[C@H](N)C(=O)O

Columns and labels:
Assay in all cases: Histone peptide microarray
Format in all cases: binding, human
KDM5B (3) = details: KDM5B (3), GST-tagged; arrays performed twice, n of 4
Excerpt: (§1) To more comprehensively define the histone interactions of the 31 PHD readers identified from the domain microarray analyses, we probed each on an alternate microarray platform containing a library of 293 synthetic histone peptides with single or combinatorial PTMs (Additional file 2: Figure S4 and Additional file 3: Table S2).
(§2) The 31 GST-tagged PHD readers identified in the PHD finger domain array were expressed and purified as previously. Histone peptide arrays and peptide pulldown assays were conducted as recently described (specifically, the optimized protocol from Petell et al. for the former).
(§3) Supplementary file 13072_2020_328_MOESM3_ESM.xlsx: Additional file 3: Table S2. […] Excel Tab Peptide List is a compiled list of the entire 293 histone peptide library with amino acid sequence ranges. […] Each number corresponds to the peptide number designated in Peptide List. Excel Tab Average Signals is a compiled set of binding data: chromatin reader at 0.5 μM vs. entire 293 peptide library. Data is presented as the average and standard deviation of 4 replicates. The average signals are colored to indicate signal intensity with green being strong and white being weak/low. […] Key: red= stronger relative binding; blue = weaker relative binding. Excel Tab Array info summary is a table summarizing the domains, sequence coverage, array signal range, and noise for each of the GST-tagged readers assayed on the peptide microarrays.

TRIM66 (PB) = details: TRIM66 (PB), GST-tagged; arrays performed twice, n of 4
Excerpt: as §1, §2, §3

PHRF1 (RP) = details: PHRF1 (RP), GST-tagged; arrays performed twice, n of 4
Excerpt: as §1, §2, §3

TAF3 = details: TAF3, GST-tagged; arrays performed twice, n of 4
Excerpt: as §1, §2, §3

BPTF (PB) = details: BPTF (PB), GST-tagged; arrays performed twice, n of 4
Excerpt: as §1, §2, §3

ING3 = details: ING3, GST-tagged; arrays performed twice, n of 4
Excerpt: as §1, §2, §3

KDM5A (1) = details: KDM5A (1), GST-tagged; arrays performed twice, n of 4
Excerpt: as §1, §2, §3

PHF21A = details: PHF21A, GST-tagged; arrays performed twice, n of 4
Excerpt: as §1, §2, §3

CHD5 (PPCC) = details: CHD5 (PPCC), GST-tagged; arrays performed twice, n of 4
Excerpt: as §1, §2, §3

AIRE (PP) = details: AIRE (PP), GST-tagged; arrays performed twice, n of 4
Excerpt: as §1, §2, §3

PHF23 = details: PHF23, GST-tagged; arrays performed twice, n of 4
Excerpt: as §1, §2, §3

BAZ2B = details: BAZ2B, GST-tagged; arrays performed twice, n of 4
Excerpt: as §1, §2, §3

DPF2 (PPC2W2) = details: DPF2 (PPC2W2), GST-tagged; arrays performed twice, n of 4
Excerpt: as §1, §2, §3

PHF2 = details: PHF2, GST-tagged; arrays performed twice, n of 4
Excerpt: as §1, §2, §3

RAG2 = details: RAG2, GST-tagged; arrays performed twice, n of 4
Excerpt: as §1, §2, §3

KDM5B (1) = details: KDM5B (1), GST-tagged; arrays performed twice, n of 4
Excerpt: as §1, §2, §3

ING2 = details: ING2, GST-tagged; arrays performed twice, n of 4
Excerpt: as §1, §2, §3

ING4 = details: ING4, GST-tagged; arrays performed twice, n of 4
Excerpt: as §1, §2, §3

KDM7A = details: KDM7A, GST-tagged; arrays performed twice, n of 4
Excerpt: as §1, §2, §3

SP140L = details: SP140L, GST-tagged; arrays performed twice, n of 4
Excerpt: as §1, §2, §3

PHF8 = details: PHF8, GST-tagged; arrays performed twice, n of 4
Excerpt: as §1, §2, §3

DIDO1 = details: DIDO1, GST-tagged; arrays performed twice, n of 4
Excerpt: as §1, §2, §3

KDM4C (TTP) = details: KDM4C (TTP), GST-tagged; arrays performed twice, n of 4
Excerpt: as §1, §2, §3

KDM5A (3) = details: KDM5A (3), GST-tagged; arrays performed twice, n of 4
Excerpt: as §1, §2, §3

ING1 = details: ING1, GST-tagged; arrays performed twice, n of 4
Excerpt: as §1, §2, §3

MLL5 = details: MLL5, GST-tagged; arrays performed twice, n of 4
Excerpt: as §1, §2, §3

CHD5 (PCC) = details: CHD5 (PCC), GST-tagged; arrays performed twice, n of 4
Excerpt: as §1, §2, §3

CHD4 (PPCC) = details: CHD4 (PPCC), GST-tagged; arrays performed twice, n of 4
Excerpt: as §1, §2, §3

PHF13 = details: PHF13, GST-tagged; arrays performed twice, n of 4
Excerpt: as §1, §2, §3

ING5 = details: ING5, GST-tagged; arrays performed twice, n of 4
Excerpt: as §1, §2, §3

MORC3 (CW) = details: MORC3 (CW), GST-tagged; arrays performed twice, n of 4
Excerpt: as §1, §2, §3

Substance	Array Heatmap value (peptide array binding signal) (KDM5B (3))	Array Heatmap value (peptide array binding signal) (TRIM66 (PB))	Array Heatmap value (peptide array binding signal) (PHRF1 (RP))	Array Heatmap value (peptide array binding signal) (TAF3)	Array Heatmap value (peptide array binding signal) (BPTF (PB))	Array Heatmap value (peptide array binding signal) (ING3)	Array Heatmap value (peptide array binding signal) (KDM5A (1))	Array Heatmap value (peptide array binding signal) (PHF21A)	Array Heatmap value (peptide array binding signal) (CHD5 (PPCC))	Array Heatmap value (peptide array binding signal) (AIRE (PP))	Array Heatmap value (peptide array binding signal) (PHF23)	Array Heatmap value (peptide array binding signal) (BAZ2B)	Array Heatmap value (peptide array binding signal) (DPF2 (PPC2W2))	Array Heatmap value (peptide array binding signal) (PHF2)	Array Heatmap value (peptide array binding signal) (RAG2)	Array Heatmap value (peptide array binding signal) (KDM5B (1))	Array Heatmap value (peptide array binding signal) (ING2)	Array Heatmap value (peptide array binding signal) (ING4)	Array Heatmap value (peptide array binding signal) (KDM7A)	Array Heatmap value (peptide array binding signal) (SP140L)	also measured
H2A.Z K4ac + K8ac + K12ac (1-19) (N-ac): H2AZ 1-19 (Ac-AGGKAGKDSGKAKTKAVSR; not fully specified (residue 4); UniProt P0C0S5 2-20, looked up, fragment)	0.5225	0.6947	0.5134	0.3233	0.4048	0.5369	0.5365	0.5429	0.6452	0.5817	0.5933	0.5346	0.7519	0.5309	0.271	0.6584	0.6161	0.5392	0.3929	0.395	Array Heatmap value (peptide array binding signal) (PHF8): 0.4227; Array Heatmap value (peptide array binding signal) (DIDO1): 0.7683; Array Heatmap value (peptide array binding signal) (KDM4C (TTP)): 0.565; Array Heatmap value (peptide array binding signal) (KDM5A (3)): 0.4842; Array Heatmap value (peptide array binding signal) (ING1): 0.5984; Array Heatmap value (peptide array binding signal) (MLL5): 0.5838; Array Heatmap value (peptide array binding signal) (CHD5 (PCC)): 0.8638; Array Heatmap value (peptide array binding signal) (CHD4 (PPCC)): 0.6197; Array Heatmap value (peptide array binding signal) (PHF13): 0.6948; Array Heatmap value (peptide array binding signal) (ING5): 0.4262; Array Heatmap value (peptide array binding signal) (MORC3 (CW)): 0.4285
H2AR3me2a + K5ac: H2A 1-17 (SG[Arg(Me2a)]GK(Ac)QGGKARAKAKTR; UniProt P0C0S8 2-18, looked up, fragment)	0.4618	0.6358	0.4082	0.2475	0.3416	0.4528	0.4472	0.4417	0.5209	0.4061	0.5294	0.4585	0.6169	0.5234	0.2374	0.6265	0.5954	0.4409	0.3242	0.3352	Array Heatmap value (peptide array binding signal) (PHF8): 0.3477; Array Heatmap value (peptide array binding signal) (DIDO1): 0.6572; Array Heatmap value (peptide array binding signal) (KDM4C (TTP)): 0.4418; Array Heatmap value (peptide array binding signal) (KDM5A (3)): 0.4055; Array Heatmap value (peptide array binding signal) (ING1): 0.502; Array Heatmap value (peptide array binding signal) (MLL5): 0.5527; Array Heatmap value (peptide array binding signal) (CHD5 (PCC)): 0.7634; Array Heatmap value (peptide array binding signal) (CHD4 (PPCC)): 0.5411; Array Heatmap value (peptide array binding signal) (PHF13): 0.6011; Array Heatmap value (peptide array binding signal) (ING5): 0.3401; Array Heatmap value (peptide array binding signal) (MORC3 (CW)): 0.3531
